This test concerns the target Maltase-glucoamylase (Homo sapiens, UniProt O43451). The experiment in a line: Inhibition of alpha-glucosidase (unknown origin) using p-nitrophenyl-alpha-D-glucopyranoside as substrate incubated for 10 mins followed by substrate addition and measured after 15 mins by microplate reader analysis.

Maltase-glucoamylase, sequence (O43451 whole entry): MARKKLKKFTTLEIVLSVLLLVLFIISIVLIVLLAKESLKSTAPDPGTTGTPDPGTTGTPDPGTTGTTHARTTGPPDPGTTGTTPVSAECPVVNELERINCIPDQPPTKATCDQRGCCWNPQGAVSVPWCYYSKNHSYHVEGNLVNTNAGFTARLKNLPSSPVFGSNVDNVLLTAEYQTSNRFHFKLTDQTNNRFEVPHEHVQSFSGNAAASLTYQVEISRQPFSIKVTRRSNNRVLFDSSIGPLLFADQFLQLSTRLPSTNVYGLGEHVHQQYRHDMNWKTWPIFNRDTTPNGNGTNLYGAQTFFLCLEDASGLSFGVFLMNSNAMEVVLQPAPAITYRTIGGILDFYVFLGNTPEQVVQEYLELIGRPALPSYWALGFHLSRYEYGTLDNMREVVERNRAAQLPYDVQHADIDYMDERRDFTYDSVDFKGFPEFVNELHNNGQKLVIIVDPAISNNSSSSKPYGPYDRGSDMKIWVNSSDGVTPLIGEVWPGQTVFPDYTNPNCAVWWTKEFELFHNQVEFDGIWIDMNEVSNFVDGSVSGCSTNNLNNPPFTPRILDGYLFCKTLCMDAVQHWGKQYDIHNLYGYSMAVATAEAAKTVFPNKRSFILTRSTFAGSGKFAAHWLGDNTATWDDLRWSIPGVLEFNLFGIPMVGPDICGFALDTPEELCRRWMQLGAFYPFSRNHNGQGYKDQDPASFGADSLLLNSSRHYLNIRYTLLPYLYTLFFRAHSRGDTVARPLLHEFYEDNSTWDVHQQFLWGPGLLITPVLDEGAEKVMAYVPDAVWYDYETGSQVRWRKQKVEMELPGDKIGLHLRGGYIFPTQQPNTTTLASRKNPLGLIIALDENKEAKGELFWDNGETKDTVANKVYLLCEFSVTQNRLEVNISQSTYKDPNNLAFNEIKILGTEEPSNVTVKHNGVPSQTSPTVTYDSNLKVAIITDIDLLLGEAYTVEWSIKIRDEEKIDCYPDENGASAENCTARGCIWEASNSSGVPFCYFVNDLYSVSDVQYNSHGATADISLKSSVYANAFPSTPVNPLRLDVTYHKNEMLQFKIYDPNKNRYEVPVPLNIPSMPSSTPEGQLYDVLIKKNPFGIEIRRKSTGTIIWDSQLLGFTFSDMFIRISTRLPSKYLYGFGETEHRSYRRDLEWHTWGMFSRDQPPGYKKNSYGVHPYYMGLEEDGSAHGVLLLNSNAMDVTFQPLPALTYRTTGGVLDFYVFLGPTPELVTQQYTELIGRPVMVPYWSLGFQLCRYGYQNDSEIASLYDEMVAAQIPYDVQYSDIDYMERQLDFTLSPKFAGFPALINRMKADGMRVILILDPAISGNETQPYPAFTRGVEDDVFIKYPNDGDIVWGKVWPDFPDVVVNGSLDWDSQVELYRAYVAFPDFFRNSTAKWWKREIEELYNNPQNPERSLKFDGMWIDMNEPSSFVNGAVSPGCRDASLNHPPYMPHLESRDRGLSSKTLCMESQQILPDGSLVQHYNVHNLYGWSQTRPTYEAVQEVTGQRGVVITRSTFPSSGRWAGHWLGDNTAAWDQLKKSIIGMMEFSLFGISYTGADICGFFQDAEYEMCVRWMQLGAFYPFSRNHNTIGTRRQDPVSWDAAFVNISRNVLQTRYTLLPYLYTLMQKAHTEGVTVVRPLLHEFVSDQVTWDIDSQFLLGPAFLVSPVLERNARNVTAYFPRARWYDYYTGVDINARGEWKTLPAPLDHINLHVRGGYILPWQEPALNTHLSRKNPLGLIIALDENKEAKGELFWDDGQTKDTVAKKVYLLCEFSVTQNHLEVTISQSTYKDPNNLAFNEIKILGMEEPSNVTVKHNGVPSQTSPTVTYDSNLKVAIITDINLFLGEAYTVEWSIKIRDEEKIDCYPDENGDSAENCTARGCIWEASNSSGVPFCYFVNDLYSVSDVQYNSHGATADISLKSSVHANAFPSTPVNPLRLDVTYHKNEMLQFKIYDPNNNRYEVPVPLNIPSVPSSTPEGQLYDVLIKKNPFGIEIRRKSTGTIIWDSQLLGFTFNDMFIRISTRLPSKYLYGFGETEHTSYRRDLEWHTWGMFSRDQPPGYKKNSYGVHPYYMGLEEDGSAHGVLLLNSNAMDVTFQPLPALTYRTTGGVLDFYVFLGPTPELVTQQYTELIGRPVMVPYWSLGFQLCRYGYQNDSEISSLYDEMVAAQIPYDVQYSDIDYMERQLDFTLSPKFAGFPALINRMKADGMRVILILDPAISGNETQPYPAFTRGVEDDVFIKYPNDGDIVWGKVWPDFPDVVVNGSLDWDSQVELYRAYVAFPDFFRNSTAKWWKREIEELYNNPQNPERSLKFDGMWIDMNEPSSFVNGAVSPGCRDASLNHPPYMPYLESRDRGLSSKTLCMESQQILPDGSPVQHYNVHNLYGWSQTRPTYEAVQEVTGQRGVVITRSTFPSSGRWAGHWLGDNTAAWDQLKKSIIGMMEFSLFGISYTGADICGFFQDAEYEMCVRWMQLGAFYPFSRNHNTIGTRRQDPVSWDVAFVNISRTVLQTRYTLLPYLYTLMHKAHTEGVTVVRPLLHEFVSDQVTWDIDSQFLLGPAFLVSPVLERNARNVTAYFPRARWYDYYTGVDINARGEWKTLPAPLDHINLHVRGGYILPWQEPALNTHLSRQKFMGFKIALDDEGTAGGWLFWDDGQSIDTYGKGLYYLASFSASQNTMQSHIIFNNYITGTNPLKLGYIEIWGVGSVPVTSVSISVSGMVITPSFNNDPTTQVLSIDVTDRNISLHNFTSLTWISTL

For `Cc1cc(O)c2c(c1)-c1c(-c3ccc(O)cc3)c(=O)oc3c1c-2c(O)c1cccc(O)c13`, the concentration for half-maximal inhibition (IC50) (usually the midpoint of a concentration-inhibition curve) was 0.89 µM. For `Cc1cc(O)c2c(c1)-c1c(-c3c[nH]c4ccccc34)c(=O)oc3c1c-2c(O)c1cccc(O)c13` the value was 1.58 µM.

Source of the values: BindingDB's records for PubMed 35766919 (Zhejiang University, 2022).
